# Experimental data published in patent publication US12559492B2, “BRAF degraders” (C4 Therapeutics, Inc., priority 2020, dated 2026).
# Target: BRAF^V600E protein (Homo sapiens, UniProt P15056, V600E)
# Experiment: HiBiT cellular BRAF V600E degradation assay
# Assay type: cell-based
# Settings: 24 h incubation; for DC50: A375.10 cells (HiBiT tag knocked in at N-terminal of BRAF V600E), concentration at which 50% of total cellular BRAF V600E is degraded; for Emax: A375.10 cells, Emax = amount of residual protein remaining in the cell after compound treatment, read-out: HiBit 24 h Emax
# BRAF^V600E protein, sequence (P15056 whole entry V600E): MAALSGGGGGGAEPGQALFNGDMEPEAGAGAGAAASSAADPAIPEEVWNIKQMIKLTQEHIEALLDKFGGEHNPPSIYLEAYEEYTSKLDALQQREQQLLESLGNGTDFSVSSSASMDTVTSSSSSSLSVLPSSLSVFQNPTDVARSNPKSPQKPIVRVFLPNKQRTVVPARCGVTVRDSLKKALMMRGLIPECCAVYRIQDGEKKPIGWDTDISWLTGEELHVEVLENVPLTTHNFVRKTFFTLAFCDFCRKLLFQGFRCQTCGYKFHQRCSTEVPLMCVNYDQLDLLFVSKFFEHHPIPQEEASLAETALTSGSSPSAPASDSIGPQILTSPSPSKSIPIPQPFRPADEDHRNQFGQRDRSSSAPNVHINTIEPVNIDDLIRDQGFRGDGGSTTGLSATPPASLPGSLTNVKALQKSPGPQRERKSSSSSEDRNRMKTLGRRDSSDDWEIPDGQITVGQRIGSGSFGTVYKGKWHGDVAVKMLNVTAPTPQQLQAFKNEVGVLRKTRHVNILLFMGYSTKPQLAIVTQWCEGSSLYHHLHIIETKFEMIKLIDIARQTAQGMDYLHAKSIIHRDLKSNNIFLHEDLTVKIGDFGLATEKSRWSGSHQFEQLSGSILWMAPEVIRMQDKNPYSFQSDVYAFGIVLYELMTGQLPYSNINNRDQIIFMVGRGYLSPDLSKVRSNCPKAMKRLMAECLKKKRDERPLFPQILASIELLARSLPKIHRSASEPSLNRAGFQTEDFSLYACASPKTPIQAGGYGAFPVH
Compound,DC50 [nM],Emax [%]
"O=C(c1c(F)ccc(NS(=O)(=O)N2CCCC2)c1F)c1c[nH]c2ncc(-c3ccc(N4CC5(CN(C(=O)CN6CCC(c7ccc(NC89CC(C8)C(=O)NC9=O)cc7)CC6)C5)C4)cc3)cc12 [Example A117, N-[3-[5-[4-[2-[2-[4-[4-[(2,4-Dioxo-3-azabicyclo[3.1.1]heptan-1-yl)amino]phenyl]piperidin-1-yl]acetyl]-2,6-diazaspiro[3.3]heptan-6-yl]phenyl]-1H-pyrrolo[2,3-b]pyridine-3-carbonyl]-2,4-difluorophenyl]pyrrolidine-1-sulfonamide]",192,24
"CC(C)S(=O)(=O)Nc1ccc(F)c(C(=O)c2c[nH]c3ncc(-c4cnc(N5CCN(C(=O)CN6CCC(c7ccc(NC8CCC(=O)NC8=O)cc7F)CC6)CC5)nc4)cc23)c1F (centres unmarked) [Example 6, N-[3-[5-[2-[4-[2-[4-[4-[(2,6-dioxo-3-piperidyl)amino]-2-fluoro-phenyl]-1-piperidyl]acetyl]piperazin-1-yl]pyrimidin-5-yl]-1H-pyrrolo[2,3-b]pyridine-3-carbonyl]-2,4-difluoro-phenyl]propane-2-sulfonamide]",5.59,7.96
"CCN(C)S(=O)(=O)Nc1ccc(F)c(C(=O)c2c[nH]c3ncc(-c4cnc(N5CCN(C(=O)CN6CCC(Nc7ccc8c(C9CCC(=O)NC9=O)nn(C)c8c7)CC6)CC5)nc4)cc23)c1F (centres unmarked) [Example 28, 3-(2,6-dioxo-3-piperidyl)-6-[[1-[2-[4-[5-[3-[3-[[ethyl(methyl)sulfamoyl]amino]-2,6-difluoro-benzoyl]-1H-pyrrolo[2,3-b]pyridin-5-yl]pyrimidin-2-yl]piperazin-1-yl]-2-oxo-ethyl]-4-piperidyl]amino]-1-methyl-indazole]",5.81,12
"CCN(C)S(=O)(=O)Nc1ccc(F)c(C(=O)c2c[nH]c3ncc(-c4cnc(N5CCN(C(=O)CN6CCC(n7cc(NC8CCC(=O)NC8=O)cn7)CC6)CC5)nc4)cc23)c1F (centres unmarked) [Example A79, 5-[2-[4-[2-[4-[4-[(2,6-Dioxopiperidin-3-yl)amino]pyrazol-1-yl]piperidin-1-yl]acetyl]piperazin-1-yl]pyrimidin-5-yl]-3-[3-[[ethyl(methyl)sulfamoyl]amino]-2,6-difluorobenzoyl]-1H-pyrrolo[2,3-b]pyridine]",60,22
"CCN(C)S(=O)(=O)Nc1ccc(F)c(C(=O)c2c[nH]c3ncc(-c4cnc(N5CCN(C(=O)CC6(O)CCN(c7ccc(NC8CCC(=O)NC8=O)cc7F)CC6)CC5)c(C#N)c4)cc23)c1F (centres unmarked) [Example 186, 5-[5-cyano-6-[4-[2-[1-[4-[(2,6-dioxo-3-piperidyl)amino]-2-fluoro-phenyl]-4-hydroxy-4-piperidyl]acetyl]piperazin-1-yl]-3-pyridyl]-3-[3-[[ethyl(methyl)sulfamoyl]amino]-2,6-difluoro-benzoyl]-1H-pyrrolo[2,3-b]pyridine]",5.45,8.35
"CCN(C)S(=O)(=O)Nc1cccc(C(=O)c2c[nH]c3ncc(-c4cnc(N5CCN(C(=O)CC6CCN(c7ccc(NC8CCC(=O)NC8=O)cc7C(F)(F)F)CC6)CC5)nc4)cc23)c1F (centres unmarked) [Example 106, 5-[2-[4-[2-[1-[4-[(2,6-dioxo-3-piperidyl)amino]-2-(trifluoromethyl)phenyl]-4-piperidyl]acetyl]piperazin-1-yl]pyrimidin-5-yl]-3-[3-[[ethyl(methyl)sulfamoyl]amino]-2-fluoro-benzoyl]-1H-pyrrolo[2,3-b]pyridine]",34.8,11.5
"CCN(C)S(=O)(=O)Nc1ccc(F)c(C(=O)c2c[nH]c3ncc(-c4cnc(N5CCN(C(=O)CC6(O)CCN(c7ccc(NC8CCC(=O)NC8=O)cc7F)CC6)CC5)c(S(C)(=O)=O)c4)cc23)c1F (centres unmarked) [Example 211, 5-[6-[4-[2-[1-[4-[(2,6-dioxo-3-piperidyl)amino]-2-fluoro-phenyl]-4-hydroxy-4-piperidyl]acetyl]piperazin-1-yl]-5-methylsulfonyl-3-pyridyl]-3-[3-[[ethyl(methyl)sulfamoyl]amino]-2,6-difluoro-benzoyl]-1H-pyrrolo[2,3-b]pyridine]",11.3,9.3
"CCN(C)S(=O)(=O)Nc1ccc(F)c(C(=O)c2c[nH]c3ncc(-c4cnc(N5CCN(C(=O)CN6CCC(c7ccc(N[C@H]8CCC(=O)NC8=O)cc7)CC6)CC5)nc4)cc23)c1F [Example 25, 5-[2-[4-[2-[4-[4-[[(3S)-2,6-dioxo-3-piperidyl]amino]phenyl]-1-piperidyl]acetyl]piperazin-1-yl]pyrimidin-5-yl]-3-[3-[[ethyl(methyl)sulfamoyl]amino]-2,6-difluoro-benzoyl]-1H-pyrrolo[2,3-b]pyridine]",3.63,6.36
"CCN(C)S(=O)(=O)Nc1ccc(F)c(C(=O)c2c[nH]c3ncc(-c4ccc(N5CCN(C(=O)CC6(O)CCN(c7cc(F)c(N8CCC(=O)NC8=O)cc7F)CC6)CC5)nc4)cc23)c1F [Example 220, 5-[6-[4-[2-[1-[4-(2,4-dioxohexahydropyrimidin-1-yl)-2,5-difluoro-phenyl]-4-hydroxy-4-piperidyl]acetyl]piperazin-1-yl]-3-pyridyl]-3-[3-[[ethyl(methyl)sulfamoyl]amino]-2,6-difluoro-benzoyl]-1H-pyrrolo[2,3-b]pyridine]",1.45,7.62
"CCN(C)S(=O)(=O)Nc1ccc(F)c(C(=O)c2c[nH]c3ncc(-c4ccc(N5CC6(CN(C(=O)CN7CCC(c8ccc(NC9CCC(=O)NC9=O)cc8)CC7)C6)C5)nc4)cc23)c1F (centres unmarked) [Example A76, 5-[6-[2-[2-[4-[4-[(2,6-dioxopiperidin-3-yl)amino]phenyl]piperidin-1-yl]acetyl]-2,6-diazaspiro[3.3]heptan-6-yl]pyridin-3-yl]-3-[3-[[ethyl(methyl)sulfamoyl]amino]-2,6-difluorobenzoyl]-1H-pyrrolo[2,3-b]pyridine]",14.9,16.9
"CCN(C)S(=O)(=O)Nc1ccc(F)c(C(=O)c2c[nH]c3ncc(-c4cc(F)c(N5CCN(C(=O)CC6(O)CCN(c7ccc(NC8CCC(=O)NC8=O)cc7F)CC6)CC5)cc4F)cc23)c1F (centres unmarked) [Example 221, 5-[4-[4-[2-[1-[4-[(2,6-dioxo-3-piperidyl)amino]-2-fluoro-phenyl]-4-hydroxy-4-piperidyl]acetyl]piperazin-1-yl]-2,5-difluoro-phenyl]-3-[3-[[ethyl(methyl)sulfamoyl]amino]-2,6-difluoro-benzoyl]-1H-pyrrolo[2,3-b]pyridine]",5.65,9.12
"CCN(C)S(=O)(=O)Nc1cccc(C(=O)c2c[nH]c3ncc(-c4ccc(N5CCN(C(=O)CC6(O)CCN(c7ccc(NC8CCC(=O)NC8=O)cc7F)C6)CC5)nc4)cc23)c1F (centres unmarked) [Example 114, 5-[6-[4-[2-[1-[4-[(2,6-dioxo-3-piperidyl)amino]-2-fluoro-phenyl]-3-hydroxy-pyrrolidin-3-yl]acetyl]piperazin-1-yl]-3-pyridyl]-3-[3-[[ethyl(methyl)sulfamoyl]amino]-2-fluoro-benzoyl]-1H-pyrrolo[2,3-b]pyridine]",2.29,10.9
"CCN(C)S(=O)(=O)Nc1ccc(F)c(C(=O)c2c[nH]c3ncc(-c4ccc(N5CCN(CCCC(=O)N6CCC(c7ccc(OC8CCC(=O)NC8=O)cc7)CC6)CC5)nc4)cc23)c1F (centres unmarked) [Example A5, 5-[6-[4-[4-[4-[4-(2,6-Dioxopiperidin-3-yl)oxyphenyl]piperidin-1-yl]-4-oxobutyl]piperazin-1-yl]pyridin-3-yl]-3-[3-[[ethyl(methyl)sulfamoyl]amino]-2,6-difluorobenzoyl]-1H-pyrrolo[2,3-b]pyridine]",104,34
